From publication PMC10866072, “Design, synthesis, molecular modelling and biological evaluation of novel 6-amino-5-cyano-2-thiopyrimidine derivatives as potent anticancer agents against leukemia and apoptotic inducers” (Journal of Enzyme Inhibition and Medicinal Chemistry, 2024)

Columns and labels:
[1] = test system: tumour cell lines; parameters: method as in PMID 32027179; conditions: broad spectrum antitumor activity, cited from earlier work
[2] = test system: HCT-116, HepG-2, MCF-7, and A549 cells; parameters: method as in PMID 32959865; conditions: cited from earlier work
[3] = test system: caspase-3 in HepG-2; parameters: method as in PMID 32959865; conditions: cited from earlier work
[4] = test system: EGFRWT; parameters: method as in PMID 32959865; conditions: cited from earlier work
[5] = test system: mutant EGFRT790M; parameters: method as in PMID 32959865; conditions: cited from earlier work
[6] = MTT cytotoxicity on normal cells; assay type: cell-based; conditions: human, WI-38 cells (normal lung fibroblasts), WI-38 normal cells, mean ± SD of three experiments, read-out: IC50 (cytotoxic activity)
Experimental: The American Type Culture Collection provided WI-38 cells (normal lung cells). The cells were grown in DMEM with 10% heat-inactivated FBS (Hyclone), 10 µg/ml of insulin (Sigma), and 1% penicillin-streptomycin. The remaining chemicals and reagents were all from Sigma or Invitrogen. The MTT test was used to evaluate cytotoxicity, as described previously. Graph pad Prism software (San Diego, CA) was used to estimate the 50% inhibitory concentration (IC50) from dose response curve graphic plots for each conc.

[7] = test system: A549; parameters: method as in PMID 31525523; conditions: cited from earlier work
[8] = test system: HeLa; parameters: method as in PMID 31525523; conditions: cited from earlier work

N#CC1=C(c2ccc(F)cc2)N=C(N/N=C/c2c[nH]c3ccccc23)NC1N1CCOCC1 (stereo not drawn) [Compound XVII]
TGI (total growth inhibition) [1]: 28.66 µM
GI50 ([1]; read-out: GI50 (median growth inhibition)): 6.15 µM

CCCCSC1=NC(c2ccccc2)=C(C#N)C(Nc2ccccn2)N1 (stereo not drawn) [Compound XIV]
activity relative to erlotinib [2]: 4.5- to 8.4 fold
increase of caspase-3 level compared to the control [3]: 6.5 times
IC50 [4]: 0.09 µM
IC50 [5]: 4.03 µM

C[C@H](Nc1ncnc2[nH]cnc12)c1cc2cccc(Cl)c2c(=O)n1-c1ccccc1 [Duvelisib]
IC50 [6]: 22.8 ± 0.65 µM

COc1cc(C2=NC3N=C(C)C(C(C)=O)C(c4ccc([N+](=O)[O-])cc4)N3N2)cc(OC)c1OC (stereo not drawn) [XXI]
IC50 [7]: 1.02 µM
IC50 [8]: 0.75 µM
